{"source": "patent US8454991B2", "about": "“Method and device for photodynamic therapy” (Quest Pharmatech Inc., priority 2006, dated 2013)", "key": {"EMT-6 tumor cells": {"test_system": "EMT-6 tumor cells", "experiment": "In vitro clonogenic assay (PDT phototoxic effect)", "type": "cell-based", "conditions": "2 hours incubation; for inhibition at 5 µM: Mus musculus", "protocol": "The feasibility of using these alternative light sources as over the counter devices for topical PDT application is tested using an in vitro clonogenic assay to assess their ability to generate a phototoxic effect with SL-017, a known photosensitizer.\nIn vitro clonogenic assay. EMT-6 tumor cells are grown in culture in RPMI 1640 and plated onto Petri dishes. The photosensitizer SL-017 is added at a fixed concentration of 5 μM to the dishes and allowed to incubate for 2 hours, and then removed. The dishes are irradiated using the different two LED light sources and the orange (rhodamine 6G) chemiluminescent light source at pre-determined light doses. The EMT-6 cells are then re-plated and allowed to grow, for 5 to 7 days The number of surviving colonies in the control and treated plates are counted visually and compared."}, "mouse skin": {"test_system": "mouse skin", "type": "in vivo, Male Balb/c mice", "protocol": "The feasibility of using these alternative light sources as over the counter devices for topical PDT application is tested using an in vivo hair removal assay to assess their ability to generate a hair removal effect on mouse skin using SL-017, a known photosensitizer. Mouse strain. Male Balb/c mice of approximately 6 to 8 weeks of age weighing 16 to 18 grams were obtained from Charles River animal facility. The animals were allowed a minimum of 1 week to acclimatize to the facility prior to treatment. In vivo hair removal assay. The animals were anesthetized with a 0.1 ml intra peritoneal injection of 12 mg/ml sodium pentobarbital in 0.9% Saline. An approximately 1.5×1.5 cm square area on the back of each animal was shaved and the area treated with a 2% SL-017 topical gel for 60 minutes. The excess gel was removed from the area and it was covered with a template with a 1 cm diameter opening. The open area was treated with either 15 or 30 J/cm^2 of light from a LED flashlight. […] The mice were monitored once weekly for the re-growth of hair in the treated area. For the white LED, the treatment time required for the 15 J/cm^2 dose group was 5 minutes and 45 sec. while for the 30 J/cm^2 dose group was 11 minutes and 30 seconds. For the red LED, the treatment time required for the 15 J/cm^2 dose group was 45 minutes, and for the 30 J/cm^2 dose group was 90 minutes."}}}
{"smiles": "COc1c2c3c4c(c(NCCCN(C)C)c(=O)c5c(O)cc(OC)c(c6c(OC)cc(O)c(c1=O)c63)c54)C=C(C)C2C(C)=O", "note": "(stereo not shown) [SL-017]", "values": [{"measurement": "inhibition at 5 µM", "setting": "EMT-6 tumor cells; EMT6, SL-017 5 μM, orange (rhodamine 6G) chemiluminescent light stick, 1 hour exposure", "result": 31.3, "unit": "%"}, {"measurement": "inhibition at 5 µM", "setting": "EMT-6 tumor cells; EMT6, light or radiation study, 2 h, SL-017 5 μM, red LED light (3 W), 0.1 J/cm^2", "result": 100, "unit": "%"}, {"measurement": "inhibition at 5 µM", "setting": "EMT-6 tumor cells; EMT6, light or radiation study, 2 h, SL-017 5 μM, red LED light (3 W), 0.25 J/cm^2", "result": 100, "unit": "%"}, {"measurement": "inhibition at 5 µM", "setting": "EMT-6 tumor cells; EMT6, light or radiation study, 2 h, SL-017 5 μM, red LED light (3 W), 0.4 J/cm^2", "result": 100, "unit": "%"}, {"measurement": "inhibition at 5 µM", "setting": "EMT-6 tumor cells; EMT6, light or radiation study, 2 h, SL-017 5 μM, white LED light (9 W), 0.5 J/cm^2", "result": 98.6, "unit": "%"}, {"measurement": "inhibition at 5 µM", "setting": "EMT-6 tumor cells; EMT6, light or radiation study, 2 h, SL-017 5 μM, white LED light (9 W), 1.0 J/cm^2", "result": 100, "unit": "%"}, {"measurement": "inhibition at 5 µM", "setting": "EMT-6 tumor cells; EMT6, light or radiation study, 2 h, SL-017 5 μM, white LED light (9 W), 2.0 J/cm^2", "result": 100, "unit": "%"}, {"measurement": "Number of Colonies", "setting": "EMT-6 tumor cells; SL-017 5 μM, orange (rhodamine 6G) chemiluminescent light stick, 1 hour exposure", "result": 86.3}, {"measurement": "Number of Colonies", "setting": "EMT-6 tumor cells; SL-017 5 μM, orange (rhodamine 6G) chemiluminescent light stick, 2 hour exposure", "result": 187.3}, {"measurement": "Number of Colonies", "setting": "EMT-6 tumor cells; SL-017 5 μM, red LED light (3 W), 0.1 J/cm^2", "result": 0}, {"measurement": "Number of Colonies", "setting": "EMT-6 tumor cells; SL-017 5 μM, red LED light (3 W), 0.25 J/cm^2", "result": 0}, {"measurement": "Number of Colonies", "setting": "EMT-6 tumor cells; SL-017 5 μM, red LED light (3 W), 0.4 J/cm^2", "result": 0}, {"measurement": "Number of Colonies", "setting": "EMT-6 tumor cells; SL-017 5 μM, white LED light (9 W), 0.5 J/cm^2", "result": 1.8}, {"measurement": "Number of Colonies", "setting": "EMT-6 tumor cells; SL-017 5 μM, white LED light (9 W), 1.0 J/cm^2", "result": 0}, {"measurement": "Number of Colonies", "setting": "EMT-6 tumor cells; SL-017 5 μM, white LED light (9 W), 2.0 J/cm^2", "result": 0}, {"measurement": "delay in hair re-growth", "setting": "mouse skin; 2% SL-017 topical gel for 60 minutes, red LED light, 30 J/cm^2", "result": 3, "unit": "weeks"}, {"measurement": "re-growth of hair in the treated area versus controls", "setting": "mouse skin; 2% SL-017 topical gel for 60 minutes, white LED light, 15 J/cm^2", "result": "no differences in the re-growth of hair"}, {"measurement": "delay in re-growth of hair", "setting": "mouse skin; 2% SL-017 topical gel for 60 minutes, white LED light, 30 J/cm^2", "result": "< 1", "unit": "week"}, {"measurement": "skin reaction post treatment at the treated site", "setting": "mouse skin; mouse, in vivo", "result": "erythema is observed"}]}
